Tests used:
Format in all cases: cell-based
[1] = system: Pseudomonas aeruginosa ATCC 25668; experiment: Range of antimicrobial activity (CFU protocol)
Protocol: (§1) For the further investigation of the exemplary compounds (Table 2), the following protocol was adopted: • (i) Bacteria (S. aureus BAA-44 and E. coli 25922) were grown in brain heart infusion (BHI) broth until they reached the stationary phase of growth. • (ii) The cells were harvested by centrifugation (3000 g for 15 min) with a table centrifuge, washed with 10 mM PBS at pH 7.4 containing 2.7 mM KCl and 0.14 M NaCl and suspended in PBS at an optical density of 0.7 at 650 nm corresponding to 10^8-10^9 cells/ml. • (iii) The bacteria, at the desired cell density (˜10^8 cells/ml) were incubated for 5 min in the dark with various concentrations of the exemplary compounds. • (iv) At the end of the incubation period the cells were washed three times with PBS, suspended in PBS, transferred into a 96-well microtitre plate (200 μl/well) and illuminated for 15 min with the Waldmann light source (15.2 mW/cm^2; 13.7 J/cm^2). The cells were illuminated from the bottom of the plate laying it on the glass cover of the lamp. • (v) After illumination, cell survival was determined by plating serially diluted aliquots of treated and untreated (i.e. no exemplary compound or light present) cells onto brain heart agar (BHA) and counting the number of colonies after 18-24 h incubation at 37° C.
(§2) The antibacterial activity of Compound 10 was tested against a range of bacterial strains: • S. aureus ATCC BAA-44 (a methicillin resistant S. aureus) • Ps. aeruginosa ATCC 25668 • S. epidermidis ATCC 700565 • Streptococcus pyogenes ATCC 49117 • E. coli ATCC 25922

[2] = system: Staphylococcus epidermidis ATCC 700565; experiment: Range of antimicrobial activity (CFU protocol)
Protocol: as §1, §2

[3] = system: Streptococcus pyogenes ATCC 49117; experiment: Range of antimicrobial activity (CFU protocol)
Protocol: as §1, §2

[4] = system: Staphylococcus aureus BAA-44; experiment: Emergence of bacterial resistance to PDT; conditions: S. aureus ATCC BAA-44; ten subsequent photodynamic treatments
Protocol: The potential build up of resistance of the bacterial cells to the exemplary compounds of the invention was tested in the multi-drug resistant (including methicillin) gram positive bacterium Staphylococcus aureus BAA-44, using Compound 10 as the photodynamic agent. The survival of S. aureus BAA-44 after the second treatment was again compared to the survival of S. aureus BAA-44 cells that had not been treated with PDT. […] In an additional experiment, clones which had been exposed nine times to PDT treatment by the above methodology were treated for a tenth time and the results compared to the cell kill observed in a parallel experiment where naïve cultures (i.e. which had not been exposed to PDT) were subjected to PDT treatment under exactly the same conditions.
The results obtained from comparing cell kill contained from cultures that had been exposed to 10 consecutive PDT treatments with neïve cultures (i.e. which had not been exposed to PDT) are shown in FIG. 7. The survival was expressed as log N0/N, where N0 and N represent the number of CFU/ml of the untreated and treated cell suspensions.

[5] = system: human dermal fibroblast (NHDF) cells; experiment: Quenching studies using sodium azide and D2O; conditions: after illumination
Protocol: Triangle/solid line: Compound 10+PBS buffer+light; Squares/solid line: Compound 10+D2O+light; Circles/solid line: Compound 10+sodium azide+light; Triangles/dotted line: Compound 10+PBS buffer w/o light; Squares/dotted line: Compound 10+D2O w/o light; Circles/dotted line: Compound 10+sodium azide w/o light. (n=3, mean±Std).
Quenching studies using D2O and azide were performed with Compound 10 and light against keratinocytes in vitro. In order to investigate whether phototoxicity of the test compound against NHDF, NHEK and bacteria follows the photo-oxidation type II, sodium azide, a physical quencher of singlet oxygen as well as D2O an enhancer of reactive oxygen species were (Lin et al., 1991, Cancer Res. 51:1109-1116; Moan et al., 1979, Brit. J. Cancer 39:398-407).

Compound: C[N+](C)(C)CCCOc1ccc(-c2c3nc(cc4ccc([nH]4)c(-c4ccc(OCCC[N+](C)(C)C)cc4)c4nc(cc5ccc2[nH]5)C=C4)C=C3)cc1.[Cl-].[Cl-] [Compound 10, 5,15-bis-[4-(3-Trimethylammonio-propyloxy)-phenyl]-porphyrin dichloride]
- Concentration of Compound 10 required to obtain a 3 log reduction in cells (μM) [1]: 5.0 μM
- Concentration of Compound 10 required to obtain a 3 log reduction in cells (μM) [2]: 0.0025 μM
- Concentration of Compound 10 required to obtain a 3 log reduction in cells (μM) [3]: 0.01 μM
- development of resistance [4]: no appreciable development of resistance
- cell viability on addition of D2O ([5]; D2O): dramatic decrease
- Cell killing in the presence of sodium azide ([5]; sodium azide (50 mM)): reduced
